According to patent US20240018136A1, “CDK Inhibitors And Their Use As Pharmaceuticals” (Prelude Therapeutics, Incorporated, priority 2022, published 2024):
pIC50: −log10 of the molar value.

Legend:
[1] = target: T1, CDK4/Cyclin D1 (Homo sapiens, UniProt P11802); assay: CDK4/CyclinD1 enzymatic activity assay (TR-FRET); format: biochemical; settings: ATP 2 mM final, read-out: CDK4_D1 IC50
T1 construct: purchased ProQinase; host or cells: insect cell
Method: CDK4/CyclinD1 Enzymatic Activity Assay
(§1) The inhibitory activity of compounds was evaluated in vitro using TR-FRET assay with white 384-well low volume microplate (Greiner Bio-One). CDK4/Cyclin D1 catalyzed phosphorylation of peptide in the presence and absence of compounds was measured and used in IC5 determination. Recombinant protein complex CDK4/Cyclin D1, expressed from insect cell, was purchased from ProQinase. Testing compounds were dissolved in DMSO at 1 mM and tested in 9-dose IC50 mode. The reaction mixture was prepared by mixing CDK4/CyclinD1 (1 nM final), ULight-4E-BP1 (100 nM final, Perkinelmer, TRF0128-D), and ATP (2 mM final) in assay buffer (20 mM of HEPES pH 7.4, 1 mM of EGTA, 0.05% BSA, 0.005% Tween 20, and 1 mM TCEP). The compound of interest in DMSO was added to each well in 3-fold serial dilution by dispenser (TECAN D300E) to make a 9.9 μL of reaction mixture. After 20 minutes preincubation at room temperature, 0.1 μL MgCl2 (10 mM final) was added to initiate the reaction. Following a 45 minute incubation at 37° C., the reaction was stopped by addition of 2 μL of quenching buffer consisting of Lance detection buffer (Perkinelmer CR97-100C), LANCE Ultra Europium-anti-P-4E-BP1 (Perkinelmer, TRF0216-D), EDTA, and incubate at room temperature for an additional 60 minutes in the dark. The reaction signal was measured by Envision multimode plate reader (PerkinElmer, 2102-0010). IC50 values were determined by fitting the data to the standard 4 parameters with Hill Slope using GraphPad Prism software.

[2] = system: OVCAR3 p-RB; assay: pRB ICW assay in OVCAR3 cells; format: cell-based; settings: Homo sapiens, OVCAR-3, incubated with compound for 2 hours
Method: pRB ICW Assay in OVCAR3 Cells
OVCAR3 cells were maintained in RPMI (Corning, Catalog #: 10-040-CV) supplemented with 10% v/v FBS (Gibco, Catalog #: 26140-079), 1% v/v Penicillin Streptomycin (Gibco, Catalog #15140-122.) OVCAR3 cells grown at log phase were trypsinized, counted, and resuspended in fresh medium to reach a final density of 6.7e4 cells/mL and 75 μL of culture were dispensed into a 384-well plate (Falcon, cat #353962) using Multidrop Combi dispenser (Thermo Scientific). The next day, compounds were dispensed as a 9-point, ½ log serial dilution using a Tecan digital dispenser (D300e), and cells were incubated with compound for 2 hours in a humidified incubator at 37° C. A reference compound at a final concentration of 10 μM was used as a control for maximum inhibition. Each compound was tested in duplicates in each experiment. At the end of the incubation, 25 μL of 16% paraformaldehyde (Electron Microscopy, cat #15710) was slowly added to each well and the plate was incubated at room temperature (RT) for 30 minutes to fix cells. Cells were then permeabilized by incubating with 50 μL/well of wash buffer (lx PBS with 0.1% Triton X-100) 5×5 minutes, followed by 1 hour blocking with 30 μL/well of Odyssey blocking buffer (Li-COR, cat #927-40000), all at RT. Anti-phosphor RB antibody (Cell signaling 8516S) was diluted 1:1000 in Odyssey blocking buffer and 20 μL was added to all wells and incubated overnight in 4° C. with gently rocking. The next day, cells were washed 5×5 min with 50 μL/well of wash buffer, followed with 1 hour incubation with secondary antibody and DRAQ5 diluted in Odyssey blocking buffer (1:500 dilution for secondary antibody and 1:2000 dilution for DRAQ5), 5×5 min washes, and one last wash with water. Plates were dried in 37° C. oven for 5 min and scanned using Li-COR Odyssey CLx imaging system to acquire intensities at 700 and 800 nm channels.

[3] = target: CDK2/Cyclin E2 (Homo sapiens, UniProt P24941); assay: CDK2/CyclinE2 enzymatic activity assay (TR-FRET); format: biochemical; settings: ATP 1 mM final, read-out: CDK2_E1 IC50
Method: CDK2/CyclinE2 Enzymatic Activity Assay
as §1, with “Bio-One). CDK2/Cyclin E2” for “Bio-One). CDK4/Cyclin D1”, “in IC50” for “in IC5”, “complex CDK2/Cyclin E2,” for “complex CDK4/Cyclin D1,”, “mixing CDK2/CyclinE2” for “mixing CDK4/CyclinD1”, “ULight-4E-BP1 (50” for “ULight-4E-BP1 (100”, “ATP (1” for “ATP (2”

T1 sequence (P11802 whole entry): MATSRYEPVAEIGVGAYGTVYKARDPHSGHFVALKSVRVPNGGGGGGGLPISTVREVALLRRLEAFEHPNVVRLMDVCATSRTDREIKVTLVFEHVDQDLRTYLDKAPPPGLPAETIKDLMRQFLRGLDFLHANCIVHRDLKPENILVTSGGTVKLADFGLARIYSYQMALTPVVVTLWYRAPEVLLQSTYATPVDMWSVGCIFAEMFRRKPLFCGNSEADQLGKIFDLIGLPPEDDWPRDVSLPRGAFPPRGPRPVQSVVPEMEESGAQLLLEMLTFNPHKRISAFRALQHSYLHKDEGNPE
T1 sequence (P24385 whole entry partner): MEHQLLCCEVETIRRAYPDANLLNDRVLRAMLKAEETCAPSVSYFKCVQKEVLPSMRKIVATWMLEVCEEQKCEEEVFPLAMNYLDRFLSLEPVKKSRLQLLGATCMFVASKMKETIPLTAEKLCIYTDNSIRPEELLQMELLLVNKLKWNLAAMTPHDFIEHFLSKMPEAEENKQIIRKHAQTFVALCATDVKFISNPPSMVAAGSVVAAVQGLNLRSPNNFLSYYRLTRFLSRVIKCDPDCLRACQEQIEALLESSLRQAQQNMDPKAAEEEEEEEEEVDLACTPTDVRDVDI

Row | pIC50 [1] | pIC50 [2] | pIC50 [3] | Compound
1 | 6.00 to 7.00 | < 6.00 | ≥ 7.00 | Cc1ncc(-c2nc(NC3CCN(S(=O)(=O)N(C)C)CC3)ncc2C(F)(F)F)s1 [Example 47, N,N-Dimethyl-4-((4-(2-methylthiazol-5-yl)-5-(trifluoromethyl)pyrimidin-2-yl)amino)piperidine-1-sulfonamide]
2 | 6.00 to 7.00 | ≥ 7.00 | ≥ 7.00 | CC(C)(O)Cc1ncc(-c2nc(NC3CCN(S(=O)(=O)c4cnc5cccnn45)CC3)ncc2C(F)(F)F)s1 [Example 76, 1-(5-(2-((1-(imidazo[1,2-b]pyridazin-3-ylsulfonyl)piperidin-4-yl)amino)-5-(trifluoromethyl)pyrimidin-4-yl)thiazol-2-yl)-2-methylpropan-2-ol]
3 | ≥ 7.00 | 6.00 to 7.00 | ≥ 7.00 | CS(=O)(=O)N1CCC(Nc2ncc(C(F)(F)F)c(-c3cnc(NC4CC4)s3)n2)CC1 [Example 36, N-Cyclopropyl-5-[2-[(1-methylsulfonylpiperidin-4-yl)amino]-5-(trifluoromethyl)pyrimidin-4-yl]-1,3-thiazol-2-amine]
4 | 6.00 to 7.00 | < 6.00 | 6.00 to 7.00 | CC(O)c1ncc(-c2nc(N[C@@H]3CCN(S(=O)(=O)c4cnn(C)c4)C[C@@H]3F)ncc2C(F)(F)F)s1 (stereo partly drawn) [Example 97, 1-(5-(2-(((3S,4R)-3-fluoro-1-((1-methyl-1H-pyrazol-4-yl)sulfonyl)piperidin-4-yl)amino)-5-(trifluoromethyl)pyrimidin-4-yl)thiazol-2-yl)ethan-1-ol]
5 | ≥ 7.00 | 6.00 to 7.00 | ≥ 7.00 | CS(=O)(=O)N1CCC(Nc2ncc(C(F)(F)F)c(-c3cnc(-c4ccc(CO)cc4)s3)n2)CC1 [Example 6, [4-[5-[2-[(1-Methylsulfonylpiperidin-4-yl)amino]-5-(trifluoromethyl)-pyrimidin-4-yl]-1,3-thiazol-2-yl]phenyl]methanol]
6 | ≥ 7.00 | < 6.00 | ≥ 7.00 | CN(c1ncc(-c2nc(NC3CCN(S(C)(=O)=O)CC3)ncc2C(F)(F)F)s1)C1CCCC1 [Example 33, N-cyclopentyl-N-methyl-5-(2-((1-(methylsulfonyl)piperidin-4-yl)amino)-5-(trifluoromethyl)pyrimidin-4-yl)thiazol-2-amine]
7 | ≥ 7.00 | 6.00 to 7.00 | ≥ 7.00 | [2H]C([2H])([2H])Nc1ncc(-c2nc(NC3CCN(S(C)(=O)=O)CC3)ncc2C(F)(F)F)s1 [Example 39, 5-[2-[(1-Methylsulfonylpiperidin-4-yl)amino]-5-(trifluoromethyl)pyrimidin-4-yl]-N-(trideuteriomethyl)-1,3-thiazol-2-amine]
8 | < 6.00 | – | 6.00 to 7.00 | Cc1ncc(-c2nc(NC3CCN(S(C)(=O)=O)CC3)ncc2C(F)(F)F)o1 [Example 66, 4-(2-methyl-1,3-oxazol-5-yl)-N-(1-methylsulfonylpiperidin-4-yl)-5-(trifluoromethyl)pyrimidin-2-amine]
9 | 6.00 to 7.00 | – | ≥ 7.00 | COCc1ncc(-c2nc(NC3CCN(S(C)(=O)=O)CC3)ncc2C(F)(F)F)s1 [Example 53, 4-[2-(Methoxymethyl)-1,3-thiazol-5-yl]-N-(1-methylsulfonylpiperidin-4-yl)-5-(trifluoromethyl)pyrimidin-2-amine]
10 | < 6.00 | – | 6.00 to 7.00 | Cc1nc(C)c(-c2nc(NC3CCN(S(C)(=O)=O)CC3)ncc2F)s1 [Example 16, 4-(2,4-dimethylthiazol-5-yl)-5-fluoro-N-(1-(methylsulfonyl)piperidin-4-yl)pyrimidin-2-amine]
11 | 6.00 to 7.00 | – | 6.00 to 7.00 | CCOc1ncc(-c2nc(NC3CCN(S(C)(=O)=O)CC3)ncc2C(F)F)s1 [Example 49, 5-(Difluoromethyl)-4-(2-ethoxy-1,3-thiazol-5-yl)-N-(1-methylsulfonylpiperidin-4-yl)pyrimidin-2-amine]
12 | – | – | ≥ 7.00 | CS(=O)(=O)N1CCC(Nc2ncc(C(F)(F)F)c(-c3cnc(-c4ccccc4CO)s3)n2)CC1 [Example 23, [2-[5-[2-[(1-Methylsulfonylpiperidin-4-yl)amino]-5-(trifluoromethyl)pyrimidin-4-yl]-1,3-thiazol-2-yl]phenyl]methanol]
13 | < 6.00 | – | 6.00 to 7.00 | CCOC(=O)Nc1ncc(-c2nc(NC3CCN(S(C)(=O)=O)CC3)ncc2C(F)(F)F)s1 [Example 55, Ethyl N-[5-[2-[(1-methylsulfonylpiperidin-4-yl)amino]-5-(trifluoromethyl)pyrimidin-4-yl]-1,3-thiazol-2-yl]carbamate]
14 | ≥ 7.00 | – | ≥ 7.00 | CS(=O)(=O)N1CCC(Nc2ncc(C(F)(F)F)c(-c3cnc(C4CCCC4)s3)n2)CC1 [Example 5, 4-(2-Cyclopentyl-1,3-thiazol-5-yl)-N-(1-methylsulfonylpiperidin-4-yl)-5-(trifluoromethyl)pyrimidin-2-amine]
15 | ≥ 7.00 | – | ≥ 7.00 | CC(C)Oc1ncc(-c2nc(NC3CCN(S(C)(=O)=O)CC3)ncc2C(F)F)s1 [Example 51, 5-(Difluoromethyl)-N-(1-methylsulfonylpiperidin-4-yl)-4-(2-propan-2-yloxy-1,3-thiazol-5-yl)pyrimidin-2-amine]
16 | 6.00 to 7.00 | – | ≥ 7.00 | Cc1c(-c2ncc(-c3nc(NC4CCN(S(C)(=O)=O)CC4)ncc3C(F)(F)F)s2)cnn1CCO [Example 18, 2-[5-methyl-4-[5-[2-[(1-methylsulfonylpiperidin-4-yl)amino]-5-(trifluoromethyl)pyrimidin-4-yl]-1,3-thiazol-2-yl]pyrazol-1-yl]ethanol]
17 | < 6.00 | – | 6.00 to 7.00 | CC(C)NC(=O)Nc1ncc(-c2nc(NC3CCN(S(C)(=O)=O)CC3)ncc2C(F)(F)F)s1 [Example 56, 1-[5-[2-[(1-Methylsulfonylpiperidin-4-yl)amino]-5-(trifluoromethyl)pyrimidin-4-yl]-1,3-thiazol-2-yl]-3-propan-2-ylurea]
18 | 6.00 to 7.00 | – | ≥ 7.00 | COc1ncc(-c2nc(NC3CCN(S(C)(=O)=O)CC3)ncc2C(F)F)s1 [Example 50, 5-(difluoromethyl)-4-(2-methoxy-1,3-thiazol-5-yl)-N-(1-methylsulfonyl-piperidin-4-yl)pyrimidin-2-amine]
19 | 6.00 to 7.00 | – | ≥ 7.00 | Cc1ncc(-c2nc(NC3CCN(S(C)(=O)=O)CC3)ncc2C(F)F)s1 [Example 43, 5-(Difluoromethyl)-N-(1-methylsulfonylpiperidin-4-yl)-4-(2-methyl-1,3-thiazol-5-yl)pyrimidin-2-amine]
